We go through 29 compounds from patent US20140315933A1, “CHEMICAL COMPOUNDS” (Pfizer Limited, priority 2013, published 2014).

Where only a bound is given, the exact number is not on record here.

T1 sequence (Q96S37 with tags, fused parts or gaps): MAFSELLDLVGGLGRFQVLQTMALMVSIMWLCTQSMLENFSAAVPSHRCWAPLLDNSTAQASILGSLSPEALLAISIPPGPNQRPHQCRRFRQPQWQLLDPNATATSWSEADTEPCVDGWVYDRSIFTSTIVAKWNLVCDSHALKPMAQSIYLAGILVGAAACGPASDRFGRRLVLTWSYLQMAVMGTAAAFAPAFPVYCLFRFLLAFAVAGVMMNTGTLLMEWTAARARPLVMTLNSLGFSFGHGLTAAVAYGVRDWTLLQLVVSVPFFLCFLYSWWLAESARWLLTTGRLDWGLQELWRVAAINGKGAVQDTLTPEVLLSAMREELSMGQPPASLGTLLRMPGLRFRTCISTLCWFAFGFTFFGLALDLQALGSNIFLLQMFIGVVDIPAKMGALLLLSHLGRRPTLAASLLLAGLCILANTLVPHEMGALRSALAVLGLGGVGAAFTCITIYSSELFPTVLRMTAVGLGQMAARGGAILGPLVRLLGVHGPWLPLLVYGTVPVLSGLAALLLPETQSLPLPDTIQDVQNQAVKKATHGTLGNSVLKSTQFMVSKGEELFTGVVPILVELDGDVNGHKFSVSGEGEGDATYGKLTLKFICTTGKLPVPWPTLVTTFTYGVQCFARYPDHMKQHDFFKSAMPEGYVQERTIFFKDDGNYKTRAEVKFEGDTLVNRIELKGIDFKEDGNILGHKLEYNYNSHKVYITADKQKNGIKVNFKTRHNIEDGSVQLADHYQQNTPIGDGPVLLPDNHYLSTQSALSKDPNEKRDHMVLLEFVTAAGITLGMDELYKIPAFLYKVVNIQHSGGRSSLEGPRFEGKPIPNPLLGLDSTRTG

The assay addresses T1, URAT-1 transporter (Homo sapiens, UniProt Q96S37).
T1 construct: expressed in transfected cells
Nature of the assay: URAT-1 inhibitor activity: [14C]-uric acid uptake into CHO-URAT1(L)GFP#8 (CHO#8) cells, scintillation proximity. The class given is cell-based. The procedure, abridged: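 CHO cells stably expressing human URAT1 long isoform C-terminally fused to eGFP, preincubated 1 hour in chloride-containing buffer, then 15 minutes with compound (0–10 μM, 0.25% DMSO) in chloride-free buffer pH 7.4. [14C]-uric acid at 30 nM final added; uptake read by scintillation proximity after three hours at room temperature, dark.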
On the technique in general: SPA uses beads or plates that emit light when radiolabelled molecules are held near them.
Regarding `COc1ncc(Oc2ccc(S(=O)(=O)Nc3nncs3)cc2C#N)cc1Cl` [Example 338], half-maximal inhibition (IC50) was put at 797 nM.
In the case of `CC(C)(F)COc1ncc(Oc2ccc(S(=O)(=O)Nc3nncs3)cc2C#N)cc1Cl` [Example 339], the IC50 (commonly the point on the concentration scale where inhibition reaches its midpoint) was greater than 10000 nM.
`Cc1nnc(NS(=O)(=O)c2ccc(Oc3ccc(C#N)c(Cl)c3)c(C#N)c2)s1` [Example 340, 4-(3-chloro-4-cyanophenoxy)-3-cyano-N-(5-methyl-1,3,4-thiadiazol-2-yl)benzenesulfonamide] gave a half-inhibitory concentration (IC50) of 484 nM.
The same measure for `N#Cc1cc(S(=O)(=O)Nc2nncs2)ccc1Oc1ccc(CO)c(Cl)c1` [Example 341, 4-[3-chloro-4-(hydroxymethyl)phenoxy]-3-cyano-N-(1,3,4-thiadiazol-2-yl)benzenesulfonamide]: 9 nM; for `N#Cc1cc(S(=O)(=O)Nc2nccs2)ccc1Oc1ccc(Cl)cc1OC(F)(F)F` [compound 162]: 565 nM; for `N#Cc1cc(S(=O)(=O)Nc2nccs2)ccc1Oc1ccc(Cl)cc1C(F)(F)F` [compound 163]: 681 nM.
The same measure for `N#Cc1cc(S(=O)(=O)Nc2nccs2)ccc1Oc1ccc(OC(F)(F)F)cc1Br` [compound 164]: greater than 10000 nM; for `N#Cc1cc(S(=O)(=O)Nc2nccs2)ccc1Oc1ccc(I)cc1` [compound 165]: 505 nM.
Regarding `N#Cc1cc(S(=O)(=O)Nc2nccs2)ccc1Oc1ccc(C(F)(F)F)cc1Br` [compound 166], half-maximal inhibition (IC50) required 2680 nM.
Then `N#Cc1cc(S(=O)(=O)Nc2nccs2)ccc1Oc1cccc(I)c1` [compound 167], with 166 nM; and `N#Cc1cc(S(=O)(=O)Nc2nccs2)ccc1Oc1ccc(Br)c(F)c1` [compound 168], with 161 nM; and `N#Cc1cc(S(=O)(=O)Nc2nccs2)ccc1Oc1ccc(Cl)c(I)c1` [compound 169], with 73 nM.
On to `N#Cc1cc(S(=O)(=O)Nc2nccs2)ccc1Oc1ccc(Br)cc1F` [compound 170], for which the concentration for half-maximal inhibition (IC50) was greater than 1260 nM.
The same measure for `N#Cc1cc(S(=O)(=O)Nc2nccs2)ccc1Oc1ccc(Br)nc1` [compound 171]: 671 nM; for `N#Cc1cc(S(=O)(=O)Nc2nccs2)ccc1Oc1ccc(Cl)nc1` [compound 172]: 917 nM; for `COc1ccc(Oc2ccc(S(=O)(=O)Nc3nccs3)cc2C#N)cn1` [compound 173]: greater than 3660 nM.
Regarding `CC(C)c1cc(C#N)cc(Oc2ccc(S(=O)(=O)Nc3nccs3)cc2C#N)c1` [compound 174], half-maximal inhibition (IC50) required 237 nM.
The same measure for `N#Cc1cc(S(=O)(=O)Nc2nccs2)ccc1Oc1cccc(CCO)c1` [compound 175]: greater than 5440 nM.
Then `N#Cc1cc(S(=O)(=O)Nc2nccs2)ccc1Oc1ccccc1CCO` [compound 176], with greater than 6000 nM.
`N#Cc1cc(S(=O)(=O)Nc2nccs2)ccc1Oc1cccc(CO)c1` [compound 177] gave a 50% inhibitory concentration (IC50) of 584 nM.
Then `N#Cc1cc(S(=O)(=O)Nc2nccs2)ccc1Oc1ccc(I)cc1F` [compound 178], with 645 nM; and `CCc1cc(F)ccc1Oc1ccc(S(=O)(=O)Nc2nccs2)cc1C#N` [compound 179], with 121 nM.
The compound `N#Cc1cc(S(=O)(=O)Nc2nccs2)ccc1Oc1cccc(Cl)c1C#N` [compound 180] gave an IC50 of 814 nM.
The compound `N#Cc1cc(S(=O)(=O)Nc2nccs2)ccc1Oc1ccccc1Cl` [compound 181] had an IC50 of 1220 nM.
The compound `N#Cc1cc(S(=O)(=O)Nc2nccs2)ccc1Oc1ccccc1Br` [compound 182] came in with a 50% inhibitory concentration (IC50) of 1330 nM.
Compound `N#Cc1cc(S(=O)(=O)Nc2nccs2)ccc1Oc1ccccc1F` [compound 183] yielded an IC50 greater than 6030 nM.
The same measure for `N#Cc1cc(S(=O)(=O)Nc2nccs2)ccc1Oc1ccc(N)cc1` [compound 184]: greater than 6240 nM; for `N#Cc1cc(Oc2ccc(S(=O)(=O)Nc3ncc(Cl)s3)cc2C#N)ccc1F` [compound 193]: 834 nM; for `N#Cc1cc(Oc2ccc(S(=O)(=O)Nc3ncns3)cc2F)ccc1F` [compound 194]: greater than 7150 nM.
